Test system: HeLa cells
Assay: MTT cytotoxicity assay, HeLa
Assay type: cell-based
Settings: Homo sapiens, 24 h, read-out: IC50, Cervix, HeLa
Protocol: In the first step of the study, we analyzed the cytotoxicity of novel soloxolone derivatives 1–12 in a panel of tumor cells, including human cervical carcinoma HeLa, human duodenal carcinoma HuTu-80 and murine melanoma B16 cells, as well as human non-transformed hFF3 foreskin fibroblasts. The cells were treated with derivatives for 24 h and cell viability was evaluated by 3-(4,5-dimethylthiazol-2-yl)-2,5-diphenyltetrazolium bromide (MTT) assay. SM was used as the reference compound.
The cells in the exponential growth phase were seeded in quadruplicate in 96-well plates at a density of 1 × 10^4 cells/well for HeLa, U87, U118, KELLY and Neuro2a cells; 1.5 × 10^4 cells/well for HuTu-80 cells; 2 × 10^4 cells/well for B16 cells; and 7 × 10^3 cells/well for hFF3 fibroblasts. Cells were incubated under standard conditions overnight followed by their treatment with the investigated compounds (1–20 µM) for 24 h. Then, 10 µL of MTT solution was added to the cells to a final concentration of 0.5 mg/mL and plates were placed under standard conditions for 3 h followed by an aspiration of MTT-containing medium and a dissolution of formazan crystals with 100 µL of DMSO. The absorbance of each well was read at test and reference wavelengths of 570 and 620 nm, respectively, on a Multiscan RC plate reader (Thermo LabSystems, Helsinki, Finland).

Q: Which IC50 does the source give for `CC1(C)C(=O)C(C#N)=C[C@]2(C)C3=CC(=O)[C@@H]4[C@@H]5C[C@@](C)(C(=O)NCCc6c[nH]c7ccccc67)CC[C@]5(C)CC[C@@]4(C)[C@]3(C)CC[C@@H]12` [compound 12] here?
A: Its IC50 is 1500 ± 100 nM.

Reference: paper PMC9145754, “Novel Soloxolone Amides as Potent Anti-Glioblastoma Candidates: Design, Synthesis, In Silico Analysis and Biological Activities In Vitro and In Vivo” (Pharmaceuticals, 2022)
